The values that follow come from patent publication US8859584B2, “TRPV1 antagonists” (AbbVie Inc., priority 2011, dated 2014).

Test [1] deals with T1, human TRPV1 (Homo sapiens, UniProt Q8NER1).
T1 construct: expressed in transfected cells
Put plainly: Capsaicin Activation Assay (FLIPR intracellular Ca2+, recombinant HEK293 cells). The test is classed as cell-based. To be noted: recombinant HEK293 cells expressing hTRPV1; 50 nM capsaicin; read-out: human TRPV1 capsaicin IC50.

The target in test [2] is T1, human TRPV1. As to the kind of experiment: Acid Activation Assay (pH 5.0, FLIPR intracellular Ca2+, recombinant HEK293 cells). It counts as cell-based. Conditions: percentage of maximal pH 5.0-induced response remaining; HEK293 hTRPV1; max concentration 37.5 μM. A digest of the protocol:
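HEK293 cells stably expressing recombinant hTRPV1 were loaded with calcium dye for 90-120 min at 25° C and pre-treated with compound for 3 min before a pH 5.0 (DPBS/MES) challenge. Peak FLIPR fluorescence over baseline is given as percentage of the maximal pH 5.0-induced response.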

As a reminder, the pIC50 is the IC50 on a negative log10 scale, so that one unit is a factor of ten.

pIC50: −log10 of the molar value. Where only a bound is given, the exact number is not on record here.

T1 sequence (Q8NER1 whole entry): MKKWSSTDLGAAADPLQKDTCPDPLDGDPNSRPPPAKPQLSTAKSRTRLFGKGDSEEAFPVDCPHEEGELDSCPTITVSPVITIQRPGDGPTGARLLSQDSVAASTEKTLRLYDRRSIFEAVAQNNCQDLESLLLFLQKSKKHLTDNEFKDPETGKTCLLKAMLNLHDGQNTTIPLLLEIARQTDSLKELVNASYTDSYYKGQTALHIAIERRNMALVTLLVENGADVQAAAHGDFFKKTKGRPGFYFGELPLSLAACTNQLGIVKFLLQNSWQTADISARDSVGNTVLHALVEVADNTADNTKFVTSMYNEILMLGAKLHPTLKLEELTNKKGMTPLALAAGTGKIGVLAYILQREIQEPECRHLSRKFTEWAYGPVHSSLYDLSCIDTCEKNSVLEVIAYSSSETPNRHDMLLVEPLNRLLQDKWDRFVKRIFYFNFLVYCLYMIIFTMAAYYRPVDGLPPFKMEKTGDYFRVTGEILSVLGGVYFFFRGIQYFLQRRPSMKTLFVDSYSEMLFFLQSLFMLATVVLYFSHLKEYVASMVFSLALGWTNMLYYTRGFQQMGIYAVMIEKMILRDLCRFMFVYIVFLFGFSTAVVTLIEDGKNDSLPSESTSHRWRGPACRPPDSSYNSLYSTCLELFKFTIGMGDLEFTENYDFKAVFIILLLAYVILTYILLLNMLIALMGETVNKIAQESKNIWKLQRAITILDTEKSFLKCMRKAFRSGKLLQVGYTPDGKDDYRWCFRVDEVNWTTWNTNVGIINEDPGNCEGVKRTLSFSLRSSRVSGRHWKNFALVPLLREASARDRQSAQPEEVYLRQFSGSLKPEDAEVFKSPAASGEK

On to `CC1(C)C[C@@H](NC(=O)Nc2cccc3c2C[C@@H](O)C3)c2cc(F)ccc2O1` [Example 83, 1-[(4R)-6-fluoro-2,2-dimethyl-3,4-dihydro-2H-chromen-4-yl]-3-[(2S)-2-hydroxy-2,3-dihydro-1H-inden-4-yl]urea], for which the pIC50 in test [1] was 6.10. For the same compound, the “human TRPV1 H+ (max % remain)” value in test [2] was found to be 27%.
For `Cc1cccnc1N1CC=C(C(=O)Nc2ccc(S(=O)(=O)C(F)(F)F)cc2)CC1` [E, reference compound], in test [1], the negative-log IC50 (pIC50) was 7.00. Further, the “human TRPV1 H+ (max % remain)” value in test [2] is 2%.
Take `CN1CC[C@@H](NC(=O)Nc2cccc3c2C[C@H](O)C3)c2ccc(C(F)(F)F)cc21` [Example 23, 1-[(2R)-2-hydroxy-2,3-dihydro-1H-inden-4-yl]-3-[(4R)-1-methyl-7-(trifluoromethyl)-1,2,3,4-tetrahydroquinolin-4-yl]urea]: the negative-log IC50 (pIC50) in test [1] is 7.29. In addition, the “human TRPV1 H+ (max % remain)” value in test [2] came out at 74%.
As to `CC1(C)Oc2ccc(F)cc2CC1NC(=O)Nc1cccc2c1C[C@H](O)C2` (stereo partly drawn) [Example 91, 1-(6-fluoro-2,2-dimethyl-3,4-dihydro-2H-chromen-3-yl)-3-[(2R)-2-hydroxy-2,3-dihydro-1H-inden-4-yl]urea], the negative logarithm of the IC50 (pIC50) in test [1] was 7.09. Further, the “human TRPV1 H+ (max % remain)” value in test [2] was determined as 78%.
Consider `CCC1(CC)C[C@@H](NC(=O)Nc2cccc3c2C[C@H](O)C3)c2ccc(F)cc2O1` [Example 52, 1-[(4R)-2,2-diethyl-7-fluoro-3,4-dihydro-2H-chromen-4-yl]-3-[(2R)-2-hydroxy-2,3-dihydro-1H-inden-4-yl]urea], for which, in test [1], the pIC50 is 7.89. Also, in test [2], the “human TRPV1 H+ (max % remain)” value turned out to be 73%.
As for `COc1ccc2c(c1)OC(c1ccc(Cl)cc1)CC2NC(=O)Nc1cccc2c1CC(O)C2` (stereo not shown) [Example 122, 1-[2-(4-chlorophenyl)-7-methoxy-3,4-dihydro-2H-chromen-4-yl]-3-(2-hydroxy-2,3-dihydro-1H-inden-4-yl)urea], the pIC50 in test [1] is 6.15. The “human TRPV1 H+ (max % remain)” value in test [2] was found to be 14%.
The matching figures for `O=C(Nc1ccc(F)c2c1C[C@H](O)C2)N[C@@H]1CC(CF)(CF)Oc2c1ccc(Cl)c2F` [Example 144, 1-[(4R)-7-chloro-8-fluoro-2,2-bis(fluoromethyl)-3,4-dihydro-2H-chromen-4-yl]-3-[(2S)-7-fluoro-2-hydroxy-2,3-dihydro-1H-inden-4-yl]urea]: 6.40 and 2%.
The matching figures for `C[C@]1(C(F)F)C[C@@H](NC(=O)Nc2cccc3c2C[C@H](O)C3)c2ccc(Cl)cc2O1` [Example 33, 1-[(2R,4R)-7-chloro-2-(difluoromethyl)-2-methyl-3,4-dihydro-2H-chromen-4-yl]-3-[(2R)-2-hydroxy-2,3-dihydro-1H-inden-4-yl]urea]: 7.57 and 51%.
Take `O=C(Nc1cccc2c1CC(O)C2)NC1c2ccccc2CC1Cc1ccc(Cl)c(Cl)c1` (stereo not shown) [Example 124, 1-[2-(3,4-dichlorobenzyl)-2,3-dihydro-1H-inden-1-yl]-3-(2-hydroxy-2,3-dihydro-1H-inden-4-yl)urea]: in test [1], the negative-log IC50 (pIC50) is less than 4.42. The “human TRPV1 H+ (max % remain)” value in test [2] turned out to be 63%.
Take `O=C(Nc1cccc2c1C[C@@H](O)C2)N[C@@H]1CC2(CCC2)Oc2ccc(F)cc21` [Example 80, 1-[(4R)-6-fluoro-3,4-dihydrospiro[chromene-2,1′-cyclobutan]-4-yl]-3-[(2S)-2-hydroxy-2,3-dihydro-1H-inden-4-yl]urea]: the negative logarithm of the IC50 (pIC50) in test [1] is 6.96. Moreover, the “human TRPV1 H+ (max % remain)” value in test [2] amounted to 4%.
The matching figures for `CN1CC[C@@H](NC(=O)Nc2cccc3c2C[C@@H](O)C3)c2ccc(C(F)(F)F)cc21` [Example 84, 1-[(2S)-2-hydroxy-2,3-dihydro-1H-inden-4-yl]-3-[(4R)-1-methyl-7-(trifluoromethyl)-1,2,3,4-tetrahydroquinolin-4-yl]urea]: 7.10 and 13%.
